In data set [1] the test system is Bacillus subtilis. Description: Antibacterial activity against penicillin-susceptible Bacillus subtilis ATCC9372 by broth microdilution assay. Type of data set: functional.
Data set [2] concerns Enterococcus faecalis. In words: Antibacterial activity against vancomycin susceptible Enterococcus faecalis ATCC29212 by broth microdilution assay. Type of data set: functional. For orientation: Dilution methods test growth across graded concentrations, often in twofold steps.
Data set [3] concerns Klebsiella pneumoniae. In words: Antibacterial activity against Klebsiella pneumoniae ATCC10031 by broth microdilution assay. Type of data set: functional.
The test system of data set [4] is Acinetobacter baumannii. Description: Antibacterial activity against Acinetobacter baumannii ATCC19606 by broth microdilution assay. Type of data set: functional.
Data set [5] deals with Escherichia coli. Description: Antibacterial activity against penicillin-susceptible Escherichia coli ATCC25922 by broth microdilution method. Type of data set: functional.
The test system of data set [6] is Pseudomonas aeruginosa. In words: Antibacterial activity against penicillin-susceptible Pseudomonas aeruginosa ATCC27853 by broth microdilution method. In kind it is functional.
Data set [7] has as its system Staphylococcus aureus. Description: Antibacterial activity against Staphylococcus aureus ATCC43300 infected in sepsis mouse model assessed as reduction in liver damage at 5 mg/kg pre-infected with bacteria for 1 hrs followed by compound administration at 12 hrs interval for 2 days by H and E staining based analysis. In kind it is functional, organism-based. The conditions noted are these: time 2.0 day.

Data set [8] has as its system Staphylococcus aureus. In words: Antibacterial activity against Staphylococcus aureus ATCC43300 infected in sepsis mouse model assessed as reduction in spleen damage at 5 mg/kg pre-infected with bacteria for 1 hrs followed by compound administration at 12 hrs interval for 2 days by H and E staining based analysis. The settings on record: time 2.0 day. In kind it is functional, organism-based.

Data set [9] has as its system Staphylococcus aureus. In words: Antibacterial activity against Staphylococcus aureus ATCC43300 infected in sepsis mouse model assessed as reduction in kidney damage at 5 mg/kg pre-infected with bacteria for 1 hrs followed by compound administration at 12 hrs interval for 2 days by H and E staining based analysis. Type of data set: functional, organism-based. The conditions noted are these: time 2.0 day.

The test system of data set [10] is Staphylococcus aureus. In words: Antibacterial activity against Staphylococcus aureus ATCC43300 infected in sepsis mouse model assessed as reduction in liver inflammation at 5 mg/kg pre-infected with bacteria for 1 hrs followed by compound administration at 12 hrs interval for 2 days by H and E staining based analysis. In kind it is functional, organism-based. The settings on record: time 2.0 day.

The test system of data set [11] is Staphylococcus aureus. Description: Antibacterial activity against Staphylococcus aureus ATCC43300 infected in sepsis mouse model assessed as reduction in spleen inflammation at 5 mg/kg pre-infected with bacteria for 1 hrs followed by compound administration at 12 hrs interval for 2 days by H and E staining based analysis. In kind it is functional, organism-based. The conditions noted are these: time 2.0 day.

Data set [12] has as its system Staphylococcus aureus. Description: Antibacterial activity against Staphylococcus aureus ATCC43300 infected in sepsis mouse model assessed as reduction in kidney inflammation at 5 mg/kg pre-infected with bacteria for 1 hrs followed by compound administration at 12 hrs interval for 2 days by H and E staining based analysis. In kind it is functional, organism-based. The conditions noted are these: time 2.0 day.

The test system of data set [13] is Staphylococcus aureus. In words: Antibacterial activity against erythromycin susceptible Staphylococcus aureus ATCC25923 by broth microdilution assay. Type of data set: functional.
Data set [14] deals with Staphylococcus aureus. Description: Antibacterial activity against penicillin-resistant Staphylococcus aureus ATCC31007 by broth microdilution assay. Type of data set: functional.
Data set [15] concerns Staphylococcus aureus. Description: Antibacterial activity against penicillin-resistant Staphylococcus aureus ATCC43300 by broth microdilution assay. In kind it is functional.
For data set [16], the system named is Staphylococcus epidermidis. Description: Antibacterial activity against erythromycin-susceptible Staphylococcus epidermidis ATCC12228 by broth microdilution assay. Type of data set: functional.
The nature of data set [17]: Hemolytic activity in red blood cells (unknown origin). Type of data set: toxicity, cell-based, Erythrocyte.
The nature of data set [18]: Selectivity index, ratio of HC50 for hemolytic activity in red blood cells (unknown origin) to MIC for antibacterial activity against penicillin-resistant Staphylococcus aureus ATCC43300. The conditions noted are these: read-out: Selectivity Index. In kind it is toxicity, cell-based, RBC.
The nature of data set [19]: Selectivity index, ratio of HC50 for hemolytic activity in red blood cells (unknown origin) to MIC for antibacterial activity against penicillin-susceptible Escherichia coli ATCC25922. In kind it is toxicity, cell-based, RBC. The settings on record: read-out: Selectivity Index.
For data set [20], the system named is Staphylococcus aureus. Description: Drug resistance, ratio of MIC for Staphylococcus aureus ATCC43300 measured after 17 passages to MIC for Staphylococcus aureus ATCC43300 measured after first exposure. Type of data set: functional.

SMILES strings stand for the structures. In brackets after ≈: the same amount, converted by molar mass. Activity calls are given as the source filed them. Bounds are passed on as bounds.

With `CN[C@H](CC(C)C)C(=O)N[C@H]1C(=O)N[C@@H](CC(N)=O)C(=O)N[C@H]2C(=O)N[C@H]3C(=O)N[C@H](C(=O)N[C@H](C(=O)O)c4cc(O)cc(O)c4-c4cc3ccc4O)[C@H](O)c3ccc(c(Cl)c3)Oc3cc2cc(c3O[C@@H]2O[C@H](CO)[C@@H](O)[C@H](O)[C@H]2O[C@H]2C[C@](C)(N)[C@H](O)[C@H](C)O2)Oc2ccc(cc2Cl)[C@H]1O` [VANCOMYCIN], the MIC (commonly the smallest concentration in the dilution series that meets the test's criterion for growth inhibition) in [1] was 0.5 µg/mL (≈ 0.345 µM); in data set [2] it was 2 µg/mL (≈ 1.38 µM); in data set [3], 128 µg/mL (≈ 88.3 µM); in [4] it was 16 µg/mL (≈ 11 µM); in data set [5] it was 128 µg/mL (≈ 88.3 µM); in data set [6], more than 128 µg/mL. Besides, the result in data set [7], in data set [8], in [9], in data set [10], in [11] and in data set [12] was Active.

As for `CCCCCC[N+](C)(C)CCCOc1ccc(/C=C/C(=O)c2ccc(OCCC[N+](C)(C)CCCCCC)cc2)cc1.[Br-].[Br-]`, the MIC in data set [13] amounted to 1 µg/mL; in [14], 1 µg/mL; in [15], 1 µg/mL; in data set [1], 0.5 µg/mL; in data set [2], 1 µg/mL; in [16] it was 0.5 µg/mL. In addition, the MIC came to 4 µg/mL in [3], 16 µg/mL in data set [4], 4 µg/mL in data set [5] and 32 µg/mL in [6]. Also, the 50% haemolytic concentration (HC50) (as a rule, the concentration giving 50% haemolysis) in [17] turned out to be 1130 µg/mL. Besides, the selectivity ratio in data set [18] turned out to be 1130; in data set [19], 283.

Regarding `CCn1cc(C(=O)O)c(=O)c2cc(F)c(N3CCNCC3)cc21` [NORFLOXACIN], in data set [20], the Ratio is listed as 256.

On to `CCCC[N+](C)(C)CCCCCOc1ccc(C(=O)/C=C/c2ccccc2)cc1.[Br-]`, for which the MIC in data set [13] came to 8 µg/mL; in data set [14] it was 64 µg/mL; in data set [15], 32 µg/mL; in [1], 32 µg/mL; in data set [2], 32 µg/mL; in data set [16] it was 16 µg/mL. In addition, the MIC was 64 µg/mL in data set [3], 128 µg/mL in data set [4], more than 128 µg/mL in [5] and more than 128 µg/mL in data set [6]. In addition, the HC50 in data set [17] is 538 µg/mL. Further, in data set [18], the selectivity ratio is 16.8.

As to `CC(C)=CC(=O)Nc1cc[n+](CCCOc2ccc(C(=O)/C=C/c3ccccc3)cc2)cc1.[Br-]`, the MIC in [13], in [14], in data set [15], in [1], in data set [2] and in [16] was more than 128 µg/mL throughout. For the same compound, the minimal inhibitory concentration (MIC) in [3], in data set [4], in data set [5] and in data set [6] was more than 128 µg/mL each time. The same compound gave an HC50 in [17] of more than 1280 µg/mL. Also, the selectivity ratio in [18] was more than 10.

As for `CCCCCC[N+](C)(C)CCCOc1ccc(C(=O)/C=C/c2ccccc2)cc1.[Br-]`, the minimal inhibitory concentration (MIC) in [13] came to 4 µg/mL; in data set [14], 16 µg/mL; in data set [15] it was 16 µg/mL; in data set [1], 16 µg/mL; in data set [2], 16 µg/mL; in [16] it was 8 µg/mL. Further, the MIC in data set [3] is 64 µg/mL; in data set [4], 64 µg/mL; in [5], more than 128 µg/mL; in [6], more than 128 µg/mL. The same compound came in with an HC50 in [17] of 49.6 µg/mL. Also, the selectivity ratio in data set [18] was 3.1.
